Measured values taken from patent US11634390B2, “Agricultural chemicals” (GLOBACHEM NV, priority 2016, dated 2023).
Where a name gives a salt, the structure may show the parent alone.

Experiments:
Assay type in all cases: in vivo
[1] = test system: Stellaria media; test: Herbicidal screen, post-emergence spray of seedlings in pots: Chickweed; conditions: Stellaria media, post-emergence, 240 h, assessed 10 days after treatment, read-out: percentage increase in necrosis relative to the control
Description: (§1) Compounds were screened at four concentrations (100, 50, 25 and 12.5 g/ha) against four weed species (Stellaria media—Chickweed; Abutilon theophrasti—velvetleaf; Amaranthus retroflexus—common amaranthus; Echinochloa crus-galli—Barnyard grass) and maize as a crop species. Seed were sown in 12.5 cm diameter pots (20 per pot for the weed species and 5 for maize). Seedlings were sprayed with 2 ml of compound two weeks after sowing, with 2 ml water used as the control. Each treatment was replicated three times. Plants were maintained at 20° C. and assessed 10 days after treatment. The assessment was based on the % plant in each pot showing growth. The data is presented in Table 1 in which d represents no detected effect at this concentration; c represents a percentage increase in necrosis relative to the control of 0.1-50; b represents a percentage increase in necrosis of 50-80; and a represents a percentage increase in necrosis of 80-100.

[2] = test system: Abutilon theophrasti; test: Herbicidal screen, post-emergence spray of seedlings in pots: velvetleaf; conditions: Abutilon theophrasti, post-emergence, 240 h, assessed 10 days after treatment, read-out: percentage increase in necrosis relative to the control
Description: as §1

[3] = test system: Amaranthus retroflexus; test: Herbicidal screen, post-emergence spray of seedlings in pots: common amaranthus; conditions: Amaranthus retroflexus, post-emergence, 240 h, assessed 10 days after treatment, read-out: percentage increase in necrosis relative to the control
Description: as §1

[4] = test system: Echinochloa crus-galli; test: Herbicidal screen, post-emergence spray of seedlings in pots: Barnyard grass; conditions: Echinochloa crus-galli, post-emergence, 240 h, assessed 10 days after treatment, read-out: percentage increase in necrosis relative to the control
Description: as §1

[5] = test system: maize; test: Herbicidal screen, post-emergence spray of seedlings in pots: crop species; conditions: Zea mays, post-emergence, 240 h, assessed 10 days after treatment, read-out: percentage increase in necrosis relative to the control
Description: as §1

Structure (SMILES)	pest or weed control at 12.5 g/ha [1] [%]	pest or weed control at 25 g/ha [1] [%]	pest or weed control at 50 g/ha [1] [%]	pest or weed control at 100 g/ha [1] [%]	pest or weed control at 12.5 g/ha [2] [%]	pest or weed control at 25 g/ha [2] [%]	pest or weed control at 50 g/ha [2] [%]	pest or weed control at 100 g/ha [2] [%]	pest or weed control at 12.5 g/ha [3] [%]	pest or weed control at 25 g/ha [3] [%]	pest or weed control at 50 g/ha [3] [%]	pest or weed control at 100 g/ha [3] [%]	pest or weed control at 12.5 g/ha [4] [%]	pest or weed control at 25 g/ha [4] [%]	pest or weed control at 50 g/ha [4] [%]	pest or weed control at 100 g/ha [4] [%]	plant injury at 12.5 g/ha [5] [%]	plant injury at 25 g/ha [5] [%]	plant injury at 50 g/ha [5] [%]	plant injury at 100 g/ha [5] [%]
Cn1c(C(F)(F)F)cc(=O)n(-c2cc(C(=O)NS(=O)(=O)C3CCOCC3)c(Cl)cc2F)c1=O [Example 1, 2-Chloro-4-fluoro-5-(3-methyl-2,6-dioxo-4-(trifluoromethyl)-3,6-dihydropyrimidin-1(2H)-yl)-N-((tetrahydro-2H-pyran-4-yl)sulfonyl)benzamide]	0.1 to 50	0.1 to 50	0.1 to 50	0.1 to 50	0.1 to 50	50 to 80	50 to 80	50 to 80	0.1 to 50	50 to 80	50 to 80	80 to 100	0.1 to 50	0.1 to 50	0.1 to 50	0.1 to 50	0.1 to 50	0.1 to 50	0.1 to 50	0.1 to 50
Cn1c(C(F)(F)F)cc(=O)n(-c2cc(C(=O)NS(=O)(=O)C3CCNC3)c(Cl)cc2F)c1=O (stereo not drawn) [Example 4, 2-Chloro-4-fluoro-5-(3-methyl-2,6-dioxo-4-(trifluoromethyl)-3,6-dihydropyrimidin-1(2H)-yl)-N-(pyrrolidin-3-ylsulfonyl)benzamide hydrochloride]	0.1 to 50	0.1 to 50	0.1 to 50	50 to 80	0.1 to 50	0.1 to 50	0.1 to 50	50 to 80	50 to 80	50 to 80	80 to 100	80 to 100	0.1 to 50	0.1 to 50	0.1 to 50	0.1 to 50	0.1 to 50	0.1 to 50	0.1 to 50	0.1 to 50
Cn1c(C(F)(F)F)cc(=O)n(-c2cc(C(=O)NS(=O)(=O)C3CNC3)c(Cl)cc2F)c1=O [Example 6, N-(Azetidin-3-ylsulfonyl)-2-chloro-4-fluoro-5-(3-methyl-2,6-dioxo-4-(trifluoromethyl)-3,6-dihydropyrimidin-1(2H)-yl)benzamide hydrochloride]	0.1 to 50	0.1 to 50	0.1 to 50	50 to 80	0.1 to 50	0.1 to 50	50 to 80	50 to 80	50 to 80	50 to 80	80 to 100	80 to 100	0.1 to 50	0.1 to 50	0.1 to 50	0.1 to 50	0.1 to 50	0.1 to 50	0.1 to 50	0.1 to 50
Cn1c(C(F)(F)F)cc(=O)n(-c2cc(C(=O)NS(=O)(=O)C3CC3)c(F)cc2F)c1=O [Example 8, N-(Cyclopropylsulfonyl)-2,4-difluoro-5-(3-methyl-2,6-dioxo-4-(trifluoromethyl)-3,6-dihydropyrimidin-1(2H)-yl)benzamide]	0.1 to 50	0.1 to 50	0.1 to 50	50 to 80	0.1 to 50	0.1 to 50	50 to 80	50 to 80	0.1 to 50	0.1 to 50	80 to 100	80 to 100	0.1 to 50	0.1 to 50	50 to 80	50 to 80	0.1 to 50	0.1 to 50	0.1 to 50	0.1 to 50
Cn1c(C(F)(F)F)cc(=O)n(-c2cc(C(=O)NS(=O)(=O)C3CCS(=O)(=O)C3)c(Cl)cc2F)c1=O (stereo not drawn) [Example 10, 2-Chloro-N-((1,1-dioxidotetrahydrothiophen-3-yl)sulfonyl)-4-fluoro-5-(3-methyl-2,6-dioxo-4-(trifluoromethyl)-3,6-dihydropyrimidin-1(2H)-yl)benzamide]	0.1 to 50	0.1 to 50	0.1 to 50	0.1 to 50	0.1 to 50	0.1 to 50	0.1 to 50	0.1 to 50	50 to 80	50 to 80	50 to 80	50 to 80	0.1 to 50	0.1 to 50	0.1 to 50	0.1 to 50	0.1 to 50	0.1 to 50	0.1 to 50	0.1 to 50
Cn1c(C(F)(F)F)cc(=O)n(-c2cc(C(=O)NS(=O)(=O)C3CC3)c(Cl)cc2F)c1=O [Example 12, 2-Chloro-N-(cyclopropylsulfonyl)-4-fluoro-5-(3-methyl-2,6-dioxo-4-(trifluoromethyl)-3,6-dihydropyrimidin-1(2H)-yl)benzamide]	0.1 to 50	0.1 to 50	0.1 to 50	0.1 to 50	0.1 to 50	0.1 to 50	0.1 to 50	50 to 80	50 to 80	50 to 80	80 to 100	80 to 100	0.1 to 50	0.1 to 50	0.1 to 50	0.1 to 50	0.1 to 50	0.1 to 50	0.1 to 50	0.1 to 50
